PubChem BioAssay (NCI)
“And” between values parts separate entries of the source, which are not always exact repeats. Identical values can stand only once.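 1) Cells in 96-well plates. 2) Compound, 48 h, 5 concentrations. 3) Linear interpolation between surrounding doses. 4) Unreached endpoint = highest concentration. GI50: concentration for 50% inhibition of growth. TGI is the concentration that stops growth completely.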

Columns and labels:
Experiment in all cases: inhibition of tumour cell growth, NCI panel, 48 h
A498 renal = test system: A498 renal
HOP-62 NSCLC = test system: HOP-62 NSCLC
UO-31 renal = test system: UO-31 renal
HCT-15 colon = test system: HCT-15 colon
786-0 renal = test system: 786-0 renal
LOX IMVI melanoma = test system: LOX IMVI melanoma
SK-OV-3 ovarian = test system: SK-OV-3 ovarian
BT-549 breast = test system: BT-549 breast
HS 578T breast = test system: HS 578T breast
PC-3 prostate = test system: PC-3 prostate

| Compound | TGI (A498 renal) [µM] | TGI (HOP-62 NSCLC) | TGI (UO-31 renal) [µM] | TGI (HCT-15 colon) [µM] | TGI (786-0 renal) [µM] | TGI (LOX IMVI melanoma) [µM] | TGI (SK-OV-3 ovarian) | GI50 (A498 renal) [µM] | GI50 (HOP-62 NSCLC) [µM] | GI50 (UO-31 renal) [µM] | GI50 (HCT-15 colon) | GI50 (786-0 renal) [µM] | GI50 (LOX IMVI melanoma) [µM] | GI50 (SK-OV-3 ovarian) [µM] | GI50 (BT-549 breast) | TGI (BT-549 breast) | GI50 (HS 578T breast) [µM] | TGI (HS 578T breast) | GI50 (PC-3 prostate) [µM] | TGI (PC-3 prostate) [µM] |
| --- | --- | --- | --- | --- | --- | --- | --- | --- | --- | --- | --- | --- | --- | --- | --- | --- | --- | --- | --- | --- |
| O=C1Cc2ccccc2N1c1c(Cl)cccc1Cl | > 100 | > 100 µM | > 100 | > 100 | > 100 | > 100 | > 100 µM | – | – | – | – | – | – | – | – | – | – | – | – | – |
| CCC[CH2][Sn]1([CH2]CCC)[O]C(=O)c2cccc(OC)c2[O]1 | 0.465 | 3.75 µM | 2.07 | 2 | 1.91 | 0.442 | 2.71 µM | 0.21 | 2.27 | 0.806 | 0.698 µM | 0.554 | 0.161 | 1.39 | – | – | – | – | – | – |
| O=C1c2cccc3cccc(c23)C(=O)N1CCCCN1CCN(CCCCOc2ccc(-c3nc4ccc(N5CCOCC5)cc4[nH]3)cc2)CC1 | > 100 | > 100 µM | > 100 | > 100 | > 100 | > 100 | > 100 µM | > 100 | > 100 | > 100 | 56.2 µM | > 100 | 9.78 | > 100 | 35.4 µM | > 100 µM | > 100 | > 100 µM | – | – |
| O=C(CC(O)c1ccncc1)c1ccccc1 (stereo not drawn) | – | > 100 µM | > 100 | > 100 | > 100 | 49.5 | 93.3 µM | – | 31.7 | 22.1 | 28.2 µM | 30 | 20.9 | 25.4 | 22.4 µM | 88.4 µM | 36.4 | > 100 µM | 23.3 | > 100 |
| O[C@@H]1CCCN1Cc1cc2cc3c(cc2c2cc(OCc4ccccc4)ccc12)OCO3 | 25.3 | 18.9 µM | 25.2 | 12.3 | 3.69 | 3.44 | 25.7 µM | 10.5 | 5.78 | 11.2 | 3.47 µM | 1.89 | 1.8 | 12.2 | 11 µM | 26.4 µM | 2.82 | 9.07 µM | – | – |
| CC1(C)N=C(N)N=C(N)N1c1ccc(OCC(=O)N2CCOCC2)c(Cl)c1 | > 100 | > 100 µM | > 100 | > 100 | > 100 | > 100 | > 100 µM | > 100 | 12.2 | > 100 | > 100 µM | 20.2 | 0.545 | 69.8 | 14.8 µM | > 100 µM | – | – | 0.531 | > 100 |
| C=CCC12CC(=O)C=C1CCC1(C2)OCCO1 (stereo not drawn) | > 100 | > 100 µM | > 100 | > 100 | > 100 | – | > 100 µM | – | – | – | – | – | – | – | – | – | – | – | – | – |
| O=C(Nc1ccc([N+](=O)[O-])cc1C(=O)O)c1ccc([N+](=O)[O-])cc1 | > 100 | > 100 µM | > 100 | > 100 | > 100 | > 100 | > 100 µM | – | – | – | – | – | – | – | – | – | – | – | – | – |
| C#C[C@@]1(O)CCCC2=CC(=O)C[C@]21C | – | – | > 100 | > 100 | > 100 | – | > 100 µM | – | – | – | – | – | – | – | – | – | – | – | – | – |
| Cn1cnc([N+](=O)[O-])c1Sc1nc2cccnc2s1 | > 100 | > 100 µM | 34.1 | 24.8 | 28.1 | 60.5 | > 100 µM | – | – | – | – | – | – | – | – | – | – | – | – | – |
| CN(C)CC(C)(C)C(/C=C/c1ccccc1)=N\Nc1ccccc1 | 37.9 | 64.7 µM | 0.843 | 2.46 | 14.8 | 15.7 | 38.8 µM | – | – | – | – | – | – | – | – | – | – | – | – | – |
| CC1C=CC(C)C2(O)C(=O)NC(O)C12 (stereo not drawn) | > 100 | > 100 µM | > 100 | > 100 | > 100 | – | > 100 µM | – | – | – | – | – | – | – | – | – | – | – | – | – |
| COc1ccc2cc3[n+](cc2c1OC)CCc1cc2c(cc1-3)OCO2 | > 307 | > 100 µM and 42.4 µM | – | > 325 | > 100 | > 201 | > 100 µM and 194 µM | – | – | – | > 100 µM and 216 µM | 72.7 | – | 38 | 3.71 µM and 2.59 µM and 5.39 µM | > 100 µM and 56.9 µM | – | > 100 µM and 87.1 µM and 40.7 µM | 6.61 | > 100 |
| CN(C)c1ccc(/C=C/c2ccnc3ccccc23)cc1N | 22.3 | 28.4 µM | 20.2 | 22.8 | 53.5 | 32.6 | 31.7 µM | – | – | – | – | – | – | – | – | – | – | 61.3 µM | – | 22 |
| Oc1ccccc1Nc1nc2ccccc2c2occc12 | – | 21.7 µM | 19.6 | 31.7 | 19.2 | 9.39 | 25.2 µM | – | 7.69 | 5.91 | 12.8 µM | 0.399 | 2.43 | 11.1 | 7.59 µM | 20.7 µM | 3.9 | 20.8 µM | 10.9 | 22.8 |
| COC(=O)c1oc2c(O)c(OC)c(Br)cc2c1C | 65.8 | 51.4 µM | > 100 | 35.5 | 32.4 | 39.2 | – | 32.7 | 23.3 | 46.9 | 17.6 µM | 18.2 | 23.5 | – | 17.7 µM | 42.6 µM | 33.7 | > 100 µM | 21.2 | 39.7 |
| COc1cc(C(=O)/C=C/c2c(-c3ccc(F)cc3)nc3ncccn23)cc(OC)c1OC | 7.58 | 24.5 µM | > 100 | – | 9.6 | – | 6.7 µM | 2.2 | 3.12 | 0.73 | – | 2.76 | – | 2.64 | 1.8 µM | 19.4 µM | 2.01 | 11.2 µM | 4.35 | > 100 |
| Cc1nc(N)sc1N=Nc1cc(Cl)c([N+](=O)[O-])cc1Cl | – | 65 µM | 66.9 | 79.3 | > 100 | 36.8 | > 100 µM | – | – | – | – | – | – | – | – | – | – | 95.9 µM | – | 53.3 |
